How the values were obtained:
[1] = test system: Cabbage Looper (Trichoplusia ni, TRIPNI); experiment: Bioassay on Cabbage Looper (CL), 128-well diet tray assay; type: in vivo; conditions: 168 h, 50 μg/cm^2 on artificial diet, second instar larvae, five to seven days, 25° C., read-out: CL % Control (or Mortality) rating
Procedure: (§1) Example A: Bioassays on Beet Armyworm (Spodoptera Exigua, LAPHEG) (“BAW”), Corn Earworm (Helicoverpa zea, HELIZE) (“CEW”), and Cabbage Looper (Trichoplusia ni, TRIPNI) (“CL”)
(§2) Certain molecules disclosed in this document were tested against BAW, CEW, and CL using procedures described in the following examples. In the reporting of the results, the “BAW, CEW, & CL Rating Table” was used (See Table Section).
Bioassays on CL were conducted using a 128-well diet tray assay. One to five second instar CL larvae were placed in each well (3 mL) of the diet tray that had been previously filled with 1 mL of artificial diet to which 50 μg/cm^2 of the test molecule (dissolved in 50 μL of 90:10 acetone-water mixture) had been applied (to each of eight wells) and then allowed to dry. Trays were covered with a clear self-adhesive cover and held at 25° C., 14:10 light-dark for five to seven days. Percent mortality was recorded for the larvae in each well; activity in the eight wells was then averaged. The results are indicated in the table entitled “Table ABC: Biological Results” (See Table Section).
(§3) Bioassays on BAW and CL were conducted according to the procedures outlined in Example A: Bioassays on Beet Armyworm (“BAW”) and Cabbage Looper (“CL”) using the indicated concentrations.

[2] = test system: Beet Armyworm (Spodoptera exigua, LAPHEG); experiment: Bioassay on Beet Armyworm (BAW), 128-well diet tray assay; type: in vivo; conditions: 168 h, 50 μg/cm^2 on artificial diet, second instar larvae, five to seven days, 25° C., read-out: BAW % Control (or Mortality) rating
Procedure: as §1, §2
Bioassays on BAW were conducted using a 128-well diet tray assay. One to five second instar BAW larvae were placed in each well (3 mL) of the diet tray that had been previously filled with 1 mL of artificial diet to which 50 μg/cm^2 of the test molecule (dissolved in 50 μL of 90:10 acetone-water mixture) had been applied (to each of eight wells) and then allowed to dry. Trays were covered with a clear self-adhesive cover and held at 25° C., 14:10 light-dark for five to seven days. Percent mortality was recorded for the larvae in each well; activity in the eight wells was then averaged. The results are indicated in the table entitled “Table ABC: Biological Results” (See Table Section).
as §3

Structure (SMILES)	mortality at 50 µg/cm2 [1] [%]	mortality at 50 µg/cm2 [2] [%]
CCC(F)(F)C(/C=C(\F)c1ccc(C(=O)N[C@H](C)CSCC(F)(F)F)c(C(F)(F)F)c1)c1cc(Cl)c(Cl)c(Cl)c1 (stereo partly drawn) [F39, 4-((Z)-1,4,4-Trifluoro-3-(3,4,5-trichlorophenyl)hex-1-en-1-yl)-N—((R)-1-((2,2,2-trifluoroethyl)thio)propan-2-yl)-2-(trifluoromethyl)benzamide]	50 to 100	50 to 100
CCSC[C@@H](C)NC(=O)c1ccc(/C(F)=C/C(c2cc(Br)cc(Br)c2)C(F)(F)F)cc1C(F)(F)F (stereo partly drawn) [F40, 4-((Z)-3-(3,5-Dibromophenyl)-1,4,4,4-tetrafluorobut-1-en-1-yl)-N—((R)-1-(ethylthio)propan-2-yl)-2-(trifluoromethyl)benzamide]	50 to 100	50 to 100
CCSC[C@@H](C)NC(=O)c1ccc(/C(F)=C/C(c2cc(Cl)c(F)c(Cl)c2)C(F)(F)F)cc1C(F)(F)F (stereo partly drawn) [F41, 4-((Z)-3-(3,5-Dichloro-4-fluorophenyl)-1,4,4,4-tetrafluorobut-1-en-1-yl)-N—((R)-1-(ethylthio)propan-2-yl)-2-(trifluoromethyl)benzamide]	50 to 100	50 to 100
C=Cc1c(Cl)cc(C(/C=C(\F)c2ccc(C(=O)N[C@H](C)CSCC)c(C(F)(F)F)c2)C(F)(F)F)cc1Cl (stereo partly drawn) [F47, 4-((Z)-3-(3,5-Dichloro-4-vinylphenyl)-1,4,4,4-tetrafluorobut-1-en-1-yl)-N—((R)-1-(ethylthio)propan-2-yl)-2-(trifluoromethyl)benzamide]	50 to 100	50 to 100
CCSC[C@@H](C)NC(=O)c1ccc(/C(F)=C/C(c2cc(Cl)c(Br)c(Cl)c2)C(F)(F)F)cc1C(F)(F)F (some centres unmarked) [F48]	50 to 100	50 to 100
O=C(NCC[S+]([O-])CC(F)(F)F)c1ccc(/C(F)=C/C(c2cc(Cl)c(Cl)c(Cl)c2)C(F)(F)F)cc1C(F)(F)F (centres unmarked) [F50, (Z)-4-(1,4,4,4-tetrafluoro-3-(3,4,5-trichlorophenyl)but-1-en-1-yl)-N-(2-((2,2,2-trifluoroethyl)sulfinyl)ethyl)-2-(trifluoromethyl)benzamide]	50 to 100	50 to 100
O=C(NCCSCC(F)(F)F)c1ccc(/C(F)=C/C(c2cc(Cl)c(Cl)c(Cl)c2)C(F)(F)F)cc1C(F)(F)F (centres unmarked) [F51, (Z)-4-(1,4,4,4-tetrafluoro-3-(3,4,5-trichlorophenyl)but-1-en-1-yl)-N-(2-((2,2,2-trifluoroethyl)thio)ethyl)-2-(trifluoromethyl)benzamide]	50 to 100	50 to 100
C[C@H](CSCC(F)(F)F)NC(=O)c1ccc(/C(F)=C/C(c2ccc(Cl)c(Cl)c2)C(C)(F)F)cc1C(F)(F)F (stereo partly drawn) [F57, 4-((Z)-3-(3,4-Dichlorophenyl)-1,4,4-trifluoropent-1-en-1-yl)-N—((R)-1-((2,2,2-trifluoroethyl)thio)propan-2-yl)-2-(trifluoromethyl)benzamide]	50 to 100	50 to 100
C[C@H](CSCC(F)(F)F)NC(=O)c1ccc(/C(F)=C/C(c2ccc(Cl)c(Cl)c2)C(F)(F)F)cc1Br (stereo partly drawn) [F58, 2-Bromo-4-((Z)-3-(3,4-dichlorophenyl)-1,4,4,4-tetrafluorobut-1-en-1-yl)-N—((R)-1-((2,2,2-trifluoroethyl)thio)propan-2-yl)benzamide]	50 to 100	50 to 100
C[C@H](CSCC(F)(F)F)NC(=O)c1ccc(/C(F)=C/C(c2ccc(Br)c(Br)c2)C(F)(F)F)cc1C(F)(F)F (some centres unmarked) [F62]	50 to 100	50 to 100
CCS(=O)(=O)C[C@@H](C)NC(=O)c1ccc(/C(F)=C/C(c2cc(Cl)c(Br)c(Cl)c2)C(F)(F)F)cc1C(F)(F)F (stereo partly drawn) [F63, 4-((Z)-3-(4-Bromo-3,5-chlorophenyl)-1,4,4,4-tetrafluorobut-1-en-1-yl)-N—((R)-1-(ethylsulfonyl)propan-2-yl)-2-(trifluoromethyl)benzamide]	50 to 100	50 to 100
C[C@H](CSCC(F)(F)F)NC(=O)c1ccc(/C(F)=C/C(c2cc(Cl)cc(Br)c2)C(F)(F)F)cc1C(F)(F)F (stereo partly drawn) [F64, 4-((Z)-3-(3-Bromo-5-chlorophenyl)-1,4,4,4-tetrafluorobut-1-en-1-yl)-N—((R)-1-((2,2,2-trifluoroethyl)thio)propan-2-yl)-2-(trifluoromethyl)benzamide]	50 to 100	50 to 100
C[C@H](C[S+]([O-])CC(F)(F)F)NC(=O)c1ccc(/C(F)=C/C(c2ccc(Cl)c(Cl)c2)C(F)(F)F)cc1Br (stereo partly drawn) [F66, 2-Bromo-4-((Z)-3-(3,4-dichlorophenyl)-1,4,4,4-tetrafluorobut-1-en-1-yl)-N-((2R)-1-((2,2,2-trifluoroethyl)sulfinyl)propan-2-yl)benzamide]	50 to 100	50 to 100
C[C@H](CS(=O)(=O)CC(F)(F)F)NC(=O)c1ccc(/C(F)=C/C(c2ccc(Cl)c(Cl)c2)C(F)(F)F)cc1Br (some centres unmarked) [F67]	50 to 100	50 to 100
C[C@H](CS(=O)(=O)CC(F)(F)F)NC(=O)c1ccc(/C(F)=C/C(c2cc(Cl)c(Cl)c(C(F)F)c2)C(F)(F)F)cc1C(F)(F)F (stereo partly drawn) [F70, 4-((Z)-3-(3,4-dichloro-5-(difluoromethyl)phenyl)-1,4,4,4-tetrafluorobut-1-en-1-yl)-N—((R)-1-((2,2,2-trifluoroethyl)sulfonyl)propan-2-yl)-2-(trifluoromethyl)benzamide]	50 to 100	50 to 100
C[C@H](CS(=O)(=O)CC(F)(F)F)NC(=O)c1ccc(/C(F)=C/C(c2cc(F)c(Cl)c(C(F)(F)F)c2)C(F)(F)F)cc1C(F)(F)F (stereo partly drawn) [F71, 4-((Z)-3-(4-Chloro-3-fluoro-5-(trifluoromethyl)phenyl)-1,4,4,4-tetrafluorobut-1-en-1-yl)-N—((R)-1-((2,2,2-trifluoroethyl)sulfonyl)propan-2-yl)-2-(trifluoromethyl)benzamide]	50 to 100	50 to 100
C[C@H](CS(=O)(=O)CC(F)(F)F)NC(=O)c1ccc(/C(F)=C/[C@H](c2cc(Cl)c(Cl)c(Cl)c2)C(F)(F)F)cc1C(F)(F)F [F72, 4-((R,Z)-1,4,4,4-tetrafluoro-3-(3,4,5-trichlorophenyl)but-1-en-1-yl)-N—((R)-1-((2,2,2-trifluoroethyl)sulfonyl)propan-2-yl)-2-(trifluoromethyl)benzamide]	50 to 100	50 to 100
C=Cc1cc(C(/C=C(\F)c2ccc(C(=O)N[C@H](C)CS(=O)(=O)CC(F)(F)F)c(C(F)(F)F)c2)C(F)(F)F)cc(Cl)c1Cl (stereo partly drawn) [F73, 4-((Z)-3-(3,4-dichloro-5-vinylphenyl)-1,4,4,4-tetrafluorobut-1-en-1-yl)-N—((R)-1-((2,2,2-trifluoroethyl)sulfonyl)propan-2-yl)-2-(trifluoromethyl)benzamide]	50 to 100	50 to 100
CSC[C@@H](C)NC(=O)c1ccc(/C(F)=C/C(c2cc(Cl)c(Cl)c(Cl)c2)C(F)(F)F)cc1C(F)(F)F (stereo partly drawn) [F75, N—((R)-1-(Methylthio)propan-2-yl)-4-((Z)-1,4,4,4-tetrafluoro-3-(3,4,5-trichlorophenyl)but-1-en-1-yl)-2-(trifluoromethyl)benzamide]	50 to 100	50 to 100
C[C@H](CS(=O)(=O)CC(F)(F)F)NC(=O)c1ccc(/C(F)=C/C(c2ccc(F)c(C(F)(F)F)c2)C(F)(F)F)cc1C(F)(F)F (stereo partly drawn) [F77, 4-((Z)-1,4,4,4-Tetrafluoro-3-(4-fluoro-3-(trifluoromethyl)phenyl)but-1-en-1-yl)-N—((R)-1-((2,2,2-trifluoroethyl)sulfonyl)propan-2-yl)-2-(trifluoromethyl)benzamide]	50 to 100	50 to 100
C[C@H](CS(=O)(=O)CC(F)(F)F)NC(=O)c1ccc(/C(F)=C/C(c2ccc(Cl)c(Br)c2)C(F)(F)F)cc1C(F)(F)F (stereo partly drawn) [F79, 4-((Z)-3-(3-Bromo-4-chlorophenyl)-1,4,4,4-tetrafluorobut-1-en-1-yl)-N—((R)-1-((2,2,2-trifluoroethyl)sulfonyl)propan-2-yl)-2-(trifluoromethyl)benzamide]	50 to 100	50 to 100
C[C@H](CS(=O)(=O)CC(F)(F)F)NC(=O)c1ccc(/C(F)=C/C(c2cc(Cl)c(Cl)c(Br)c2)C(F)(F)F)cc1C(F)(F)F (stereo partly drawn) [F80, 4-((Z)-3-(3-Bromo-4,5-dichlorophenyl)-1,4,4,4-tetrafluorobut-1-en-1-yl)-N—((R)-1-((2,2,2-trifluoroethyl)sulfonyl)propan-2-yl)-2-(trifluoromethyl)benzamide]	50 to 100	50 to 100

Source: patent US10681908B2, “Molecules having pesticidal utility, and intermediates, compositions, and processes, related thereto” (Dow AgroSciences LLC, priority 2016, dated 2020)
